According to PMC4001449, “Thienoquinolines as Novel Disruptors of the PKCε/RACK2 Protein–Protein Interaction” (Journal of Medicinal Chemistry, 2014):

How the values were obtained:
PKCε/RACK2 interaction = molecular target: T1, PKCε/RACK2 interaction (Homo sapiens, UniProt P35606); test: PKCε/RACK2 in vitro binding assay (ELISA-based); details: 25 μM solution, Figure 2A
T1 sequence (P35606 1-906): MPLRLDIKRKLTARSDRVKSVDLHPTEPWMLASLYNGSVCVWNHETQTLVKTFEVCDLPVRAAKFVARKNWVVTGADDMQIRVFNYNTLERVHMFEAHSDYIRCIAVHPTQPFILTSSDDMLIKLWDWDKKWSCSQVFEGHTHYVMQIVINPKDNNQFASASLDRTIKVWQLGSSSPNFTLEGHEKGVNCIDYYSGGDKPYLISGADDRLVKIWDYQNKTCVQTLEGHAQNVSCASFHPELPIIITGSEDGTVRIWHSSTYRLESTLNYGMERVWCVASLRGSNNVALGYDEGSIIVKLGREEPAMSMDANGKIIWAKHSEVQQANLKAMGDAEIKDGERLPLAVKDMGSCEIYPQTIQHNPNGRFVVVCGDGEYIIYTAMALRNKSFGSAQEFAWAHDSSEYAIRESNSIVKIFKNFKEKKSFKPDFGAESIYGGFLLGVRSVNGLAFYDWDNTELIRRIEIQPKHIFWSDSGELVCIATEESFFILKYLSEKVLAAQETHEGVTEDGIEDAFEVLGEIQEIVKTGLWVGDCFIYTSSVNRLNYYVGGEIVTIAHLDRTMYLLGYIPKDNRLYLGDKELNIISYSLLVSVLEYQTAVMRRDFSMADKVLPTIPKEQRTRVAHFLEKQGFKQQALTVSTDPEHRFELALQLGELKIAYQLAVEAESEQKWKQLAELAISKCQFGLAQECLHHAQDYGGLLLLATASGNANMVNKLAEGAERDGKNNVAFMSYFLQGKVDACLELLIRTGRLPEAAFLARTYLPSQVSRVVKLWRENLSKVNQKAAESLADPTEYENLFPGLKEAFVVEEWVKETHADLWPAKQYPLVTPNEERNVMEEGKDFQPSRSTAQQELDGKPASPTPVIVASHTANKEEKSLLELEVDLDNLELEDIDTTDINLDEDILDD
Protocol: Recombinant RACK2 tagged with maltose-binding protein (RACK2-MBP) was purified on columns with amylose resin (New England Biolabs, Ipswich, MA) as described by the manufacturer. The recombinant protein was analyzed by Coomassie Blue staining and Western blotting after SDS–PAGE. Aliquots were stored in liquid nitrogen. The interaction between PKCε and RACK2 was measured using an ELISA-based assay. The 96-well EIA/RIA high binding plates (Costar) were coated with 100 ng of recombinant PKCε (ProQinase, Freiburg, Germany) in buffer A (20 mM Tris-HCl/100 mM NaCl, pH 7.5) at 4 °C on a shaker with gentle agitation overnight. The plate was washed twice with 225 μL/well buffer A. After blocking of unspecific binding sites with 225 μL of sterile-filtered 3% bovine serum albumin (BSA; Sigma-Aldrich, St. Louis, MO) in buffer A at room temperature for 3 h, the plate was washed twice with 225 μL of this buffer. PKCε was left untreated or activated by addition of 60 μg/mL phosphatidylserine (Sigma-Aldrich) and 100 nM TPA (Sigma-Aldrich) in a volume of 50 μL of buffer A for 10 min at 30 °C. […] Color development was measured on a plate reader at a wavelength of 420 nm.

PKCε = PKCε translocation, cell fractionation and Western blotting in PC-3 cells; assay type: cell-based, human; details: Figure 3
Protocol: For PKCε translocation PC-3 cells were starved for 16 h, treated with 8 for 30 min, stimulated with 50 nM TPA for 5 min, lysed, and fractionated with a CNMCS/CNM compartmental protein extraction kit (BioChain Institute, Newark, CA). Western blotting was performed by a standard procedure as described by Garczarczyk et al.[27],[40] Cytosolic and membrane fractions were loaded onto SDS gels and transferred to an Immobilon membrane (Millipore, Billerica, MA). The membranes were incubated with rabbit polyclonal IgG antibodies for detection of PKCε (Santa Cruz Biotechnology; dilution 1:2000), for PKCε phosphoSer^729 (Millipore; dilution 1:1000), for PKCδ (Santa Cruz Biotechnology; dilution 1:1000), and for MARCKS phosphoSer152/156 (Cell Signaling Technology, Danvers, MA; dilution 1:1000). For the loading control tubulin (Santa Cruz Biotechnology; dilution 1:1000), and as marker for the membrane fraction, an IGFI-βR rabbit polyclonal IgG antibody (Santa Cruz; dilution 1:1000) and, as secondary antibodies, peroxidase-conjugated AffiniPure goat anti-rabbit IgG (Jackson ImmunoResearch Laboratories, West Grove, PA; dilution 1:20000) were used. GAPDH (Chemicon, Millipore, Billerica, MA; dilution 1:10000) was used as loading control for the cytosolic fraction. […]

[1] = tested on: PC-3 prostate adenocarcinoma cells; test: Cell proliferation (SRB assay), PC-3; assay type: cell-based, human; details: PC-3, 50 μM, 72 h
Protocol: HeLa cells containing a tetracycline/doxycycline-inducible constitutively active PKCε were described previously.[26] A PathDetect HeLa HLR cell line was obtained from Agilent, Technologies, Wokingham, U.K. PC-3 prostate adenocarcinoma cells were obtained from Dr. Helmut Klocker, Department of Urology, Innsbruck Medical University. For cell proliferation HeLa HLR and PC-3 cells were seeded at ∼10 000 cells per well in 96-well plates. After 4 h various concentrations of 8 were added and left for 72 h. Cell proliferation was determined by the SRB assay.[35]

ERK1 = ERK1 (Homo sapiens, UniProt P27361); test: Kinase profiling (Dundee), ERK1; assay type: biochemical; details: 25 μM solution
ERK1, sequence (P27361 whole entry, species assumed): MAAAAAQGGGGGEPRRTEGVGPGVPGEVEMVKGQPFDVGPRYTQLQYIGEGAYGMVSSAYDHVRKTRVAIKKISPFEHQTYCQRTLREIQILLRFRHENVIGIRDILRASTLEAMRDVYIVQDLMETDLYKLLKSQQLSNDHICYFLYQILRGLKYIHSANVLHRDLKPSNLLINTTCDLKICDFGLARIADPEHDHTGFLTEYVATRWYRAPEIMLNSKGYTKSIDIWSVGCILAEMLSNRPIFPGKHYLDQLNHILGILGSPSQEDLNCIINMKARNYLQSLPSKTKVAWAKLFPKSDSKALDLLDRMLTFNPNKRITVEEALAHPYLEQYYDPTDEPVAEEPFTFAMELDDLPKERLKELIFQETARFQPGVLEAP

BTK = BTK (Homo sapiens, UniProt Q06187); test: Kinase profiling (Dundee), BTK; assay type: biochemical; details: 25 μM solution
BTK, sequence (Q06187 whole entry, species assumed): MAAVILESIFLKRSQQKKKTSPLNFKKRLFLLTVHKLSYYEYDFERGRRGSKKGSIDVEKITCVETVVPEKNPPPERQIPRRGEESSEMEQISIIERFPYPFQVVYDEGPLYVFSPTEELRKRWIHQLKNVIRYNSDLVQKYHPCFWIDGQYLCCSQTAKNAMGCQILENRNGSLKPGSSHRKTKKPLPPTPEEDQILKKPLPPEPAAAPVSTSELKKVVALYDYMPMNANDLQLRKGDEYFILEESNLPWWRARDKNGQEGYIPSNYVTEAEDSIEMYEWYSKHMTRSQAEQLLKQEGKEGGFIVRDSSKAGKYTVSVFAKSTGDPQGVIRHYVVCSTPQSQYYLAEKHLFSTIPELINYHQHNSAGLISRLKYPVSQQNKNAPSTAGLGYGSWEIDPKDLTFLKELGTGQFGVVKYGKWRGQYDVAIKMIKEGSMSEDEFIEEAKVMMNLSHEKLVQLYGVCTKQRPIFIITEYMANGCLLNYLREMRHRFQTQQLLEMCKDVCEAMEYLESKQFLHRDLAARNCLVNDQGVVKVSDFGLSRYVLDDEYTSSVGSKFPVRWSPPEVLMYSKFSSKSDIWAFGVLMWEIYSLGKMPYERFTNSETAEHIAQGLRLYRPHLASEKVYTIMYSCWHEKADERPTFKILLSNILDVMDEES

[2] = tested on: 109 different protein kinases; test: Screen of 109 kinases (Dundee); assay type: biochemical; details: 25 μM solution; many kinases

Compound: CC(=O)c1cccc(NC(=O)c2sc3nc4cc5c(cc4cc3c2N)OCCO5)c1 [Compound 8, N-(3-acetylphenyl)-9-amino-2,3-dihydro-1,4-dioxino[2,3-g]thieno[2,3-b]quinoline-8-carboxamide]
- PKCε/RACK2 interaction, % of untreated controls (PKCε/RACK2 interaction): approximately 10 % of untreated controls
- Ser729-phosphorylated PKCε at the membrane (PKCε; TPA): did not reduce
- Translocation of activated and phosphorylated PKCε to the membrane fraction (PKCε; TPA-induced): partially inhibits
- Inhibition of cell proliferation [1]: did not show any inhibition
- ERK1 activity, % of control (ERK1): 55 % of control
- BTK activity, % of control (BTK): 42 % of control
- Effect on kinases in a screen of 109 kinases [2]: not or only slightly affected
